Results reported in PubChem BioAssay (NCI).
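Step 1: Grow cells in 96-well plates. Step 2: Expose to compound for 48 hours at 5 concentrations. Step 3: Interpolate endpoints linearly; if unreached, use highest concentration. TGI marks complete inhibition of growth.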 Where a SMILES comes first, the peptide text is derived from it. The star is where a group is joined. Cbz = O=C(OCc1ccccc1)*; OBn = c1ccc(CO*)cc1

Columns and labels:
Assay in all cases: NCI-60 cell line screen, 48 h
SNB-19 CNS = test system: SNB-19 CNS
NCI-H522 lung = test system: NCI-H522 lung
UACC-62 melanoma = test system: UACC-62 melanoma
RXF 393 renal = test system: RXF 393 renal
BT-549 breast = test system: BT-549 breast
786-0 renal = test system: 786-0 renal
PC-3 prostate = test system: PC-3 prostate
SW-620 colon = test system: SW-620 colon
SF-539 CNS = test system: SF-539 CNS
HOP-92 NSCLC = test system: HOP-92 NSCLC
CCRF-CEM leukemia = test system: CCRF-CEM leukemia
MDA-MB-231 breast = test system: MDA-MB-231 breast
TK-10 renal = test system: TK-10 renal
T-47D breast = test system: T-47D breast
OVCAR-4 ovarian = test system: OVCAR-4 ovarian
NCI-H460 lung = test system: NCI-H460 lung
HCT-15 colon = test system: HCT-15 colon
SK-MEL-28 melanoma = test system: SK-MEL-28 melanoma
NCI-H226 lung = test system: NCI-H226 lung
A498 renal = test system: A498 renal

Row | SMILES | TGI (SNB-19 CNS) [µM] | TGI (NCI-H522 lung) [µM] | TGI (UACC-62 melanoma) [µM] | TGI (RXF 393 renal) [µM] | TGI (BT-549 breast) [µM] | TGI (786-0 renal) [µM] | TGI (PC-3 prostate) [µM] | TGI (SW-620 colon) [µM] | TGI (SF-539 CNS) [µM] | TGI (HOP-92 NSCLC) [µM] | TGI (CCRF-CEM leukemia) [µM] | TGI (MDA-MB-231 breast) [µM] | TGI (TK-10 renal) [µM] | TGI (T-47D breast) [µM] | TGI (OVCAR-4 ovarian) [µM] | TGI (NCI-H460 lung) [µM] | TGI (HCT-15 colon) [µM] | TGI (SK-MEL-28 melanoma) [µM] | TGI (NCI-H226 lung) [µM] | TGI (A498 renal) [µM]
1 | NC1CC(=O)c2cc(Cl)sc21 (configuration not stated) | > 100 | > 100 | > 100 | > 100 | > 100 | > 100 | > 100 | > 100 | > 100 | > 100 | > 100 | > 100 | > 100 | > 100 | > 100 | > 100 | > 100 | > 100 | > 100 | –
2 | CC1=C(C(=O)Nc2cccc3c2C(=O)NC3=O)CC(C(=O)Nc2cccc3c2C(=O)NC3=O)=C(C)N1 | > 100 | > 100 | > 100 | > 100 | > 100 | > 100 | > 100 | > 100 | > 100 | > 100 | > 100 | > 100 | > 100 | > 100 | > 100 | > 100 | > 100 | > 100 | – | > 100
3 | CC(C)OP(=O)(OC(C)C)C(C(C)C)N(C)/C(N)=N\C1=NC(C(F)(F)F)(C(F)(F)F)N=C(C(C(F)(F)F)C(F)(F)F)O1 (configuration not stated) | 44.9 | 3.09 | 4.7 | 4.08 | 8.2 | 12.4 | 8.42 | 5.48 | 11.8 | – | 4.88 | 4.33 | 13.6 | 31.3 | – | 9.91 | – | 12.4 | 5.05 | 23.5
4 | Fc1c(F)c(C(F)(F)F)c(F)c(F)c1N/N=C\c1c[nH]c2ccccc12 | 12 | 5.57 | 10.5 | 7.93 | 7.09 | 14.5 | 8.01 | 12.5 | – | 16.5 | 4.73 | 12.7 | 15.6 | 18.7 | 6.72 | 3.93 | 12.8 | 20 | – | 15
5 | COc1cc2c(cc1OC)-c1[nH]c3ccc(C#N)cc3c1CC(=O)N2 | > 100 | > 100 | > 100 | – | > 100 | > 100 | > 100 | > 100 | > 100 | > 100 | > 100 | > 100 | > 100 | > 100 | > 100 | > 100 | > 100 | > 100 | > 100 | > 100
6 | Cn1nc(Cc2ccc(Cl)cc2)n(N)c1=O | > 100 | – | > 100 | > 100 | > 100 | > 100 | > 100 | > 100 | > 100 | – | – | > 100 | > 100 | > 100 | – | > 100 | > 100 | > 100 | > 100 | > 100
7 | CCOC(=O)c1ccc(C(=O)OCC)n1-c1cc2cc(c1)CSCc1cc(cc(-n3c(C(=O)OCC)ccc3C(=O)OCC)c1)CSC2 | > 10 | > 10 | > 10 | > 10 | > 10 | > 10 | > 10 | > 10 | > 10 | > 10 | > 10 | > 10 | > 10 | > 10 | > 10 | > 10 | > 10 | > 10 | > 10 | –
8 | CCOC(=O)/C(N=Nc1ccc(-n2c(C)nc3ccccc3c2=O)cc1)=C(/C)O | > 100 | – | > 100 | – | > 100 | > 100 | > 100 | > 100 | > 100 | > 100 | > 100 | > 100 | > 100 | 92.3 | – | > 100 | > 100 | 71.6 | 80.1 | > 100
9 | O=c1n(/N=C/c2ccccc2)c(=O)n2n1C1C=CC2CC1 | > 100 | – | > 100 | – | > 100 | > 100 | > 100 | > 100 | > 100 | > 100 | > 100 | > 100 | > 100 | > 100 | – | > 100 | > 100 | > 100 | > 100 | > 100
10 | Cc1occc1C(=S)Nc1ccc(Cl)c(C(=O)OCC(F)(F)F)c1 | 43.9 | 45.5 | 32 | – | 42.7 | 34.6 | 57.8 | 56.3 | 18.1 | 44.1 | 57.7 | 35.2 | 43 | 72.4 | 45.9 | 48.1 | 45.3 | 42.6 | 35.9 | 30.5
11 | COc1cc(Br)c(OC)c2c(OC)cc(C)cc12 | > 100 | > 100 | > 100 | > 100 | > 100 | > 100 | > 100 | > 100 | > 100 | – | > 100 | > 100 | > 100 | > 100 | – | > 100 | > 100 | > 100 | > 100 | > 100
12 | N#CC1(C#N)C2CCCCC23OC(=N)C1(C#N)C(c1ccco1)O3 (configuration not stated) | > 100 | – | 36.4 | 59.1 | 30.3 | 31.2 | 64.6 | 52.3 | 51.6 | 29.2 | > 100 | 33 | 36.1 | 51.8 | – | > 100 | 22.5 | 45.6 | > 100 | 57.7
13 | COC(=O)CNC(=O)C(C)NC(=O)C(CC(=O)OCc1ccccc1)NC(=O)OCc1ccccc1 (stereo not drawn) (Cbz-Asp(OBn)-Ala-Gly-OMe; configuration not given here) | > 100 | > 100 | > 100 | 68.6 | > 100 | > 100 | > 100 | > 100 | > 100 | > 100 | – | 46.9 | > 100 | 70.3 | – | > 100 | > 100 | > 100 | > 100 | –
14 | Cc1c2cnccc2c(C)c2c1[nH]c1ccc(O)cc12 | > 10 | > 10 | > 10 | 7.24 | > 10 | 1.42 | > 10 | 7.03 | 2.41 | – | > 10 | 4.13 | > 10 | > 10 | 8 | 2.63 | > 10 | 9.94 | > 10 | –
15 | C=C1C(=O)C([Si](C)(C)C)=C2C=C(C)C3(CC3)C12C (configuration not stated) | > 100 | 66.2 | > 100 | 60.5 | 55 | > 100 | 42.5 | > 100 | – | – | 11 | 84.6 | > 100 | > 100 | > 100 | > 100 | > 100 | > 100 | > 100 | > 100
16 | COc1ccc(OC)c2sc(N3C(=O)/C(=C/Cc4ccco4)N=C3c3ccccc3)nc12 | > 100 | – | 51.1 | – | > 100 | > 100 | 71.5 | > 100 | > 100 | > 100 | 26.9 | > 100 | > 100 | 79.8 | > 100 | > 100 | > 100 | > 100 | – | > 100
17 | O=C(O)c1c[nH]c2c(Sc3ccccc3)nccc2c1=O | > 100 | > 100 | > 100 | – | > 100 | > 100 | > 100 | > 100 | > 100 | > 100 | > 100 | > 100 | > 100 | > 100 | > 100 | > 100 | > 100 | > 100 | > 100 | > 100
18 | NCCCCNCCCN1CC1 | 22.5 | 19.9 | 91.1 | 1.05 | 17.4 | 5.75 | > 100 | > 100 | 2.59 | 7.47 | – | – | > 100 | 3.46 | 0.733 | > 100 | > 100 | > 26 | > 31.4 | 1.84
19 | Cc1nc2sc(CCl)nn2c(=O)c1Cl | 32.3 | 12.4 | 36.2 | 11 | 15.6 | 22.4 | 25.1 | 25.6 | 31.3 | 18.7 | 24.9 | 36.4 | 25 | 28.3 | 29.7 | 25.3 | 23.8 | 27.3 | 31.8 | –
20 | CCOC(=O)C(c1c[nH]c2ccccc12)(c1c[nH]c2ccccc12)c1c[nH]c2ccccc12 | > 100 | 80.1 | > 100 | 87.5 | > 100 | > 100 | 71.2 | 75.9 | > 100 | > 100 | 58.9 | > 100 | > 100 | 54.2 | – | > 100 | > 100 | > 100 | – | > 100
21 | O=C1NC(N2CCOCC2)=N/C1=C\c1cccs1 | > 100 | > 100 | > 100 | > 100 | > 100 | > 100 | > 100 | > 100 | > 100 | > 100 | > 100 | > 100 | > 100 | > 100 | > 100 | – | > 100 | > 100 | > 100 | –
22 | CC(C)c1ccccc1SC1CC(=O)CC(Sc2ccccc2C(C)C)C12O[C@H](c1ccccc1)[C@@H](c1ccccc1)O2 (some centres not stated) | > 100 | – | 96.4 | 42 | > 100 | 33.3 | > 100 | > 100 | > 100 | > 100 | 52.9 | 71.8 | > 100 | 82.9 | > 100 | > 100 | > 100 | > 100 | – | > 100
23 | COc1ccccc1C1CC(=O)CC(c2ccccc2OC)C12C(=O)NC(=S)NC2=O (configuration not stated) | > 100 | > 100 | > 100 | > 100 | > 100 | > 100 | > 100 | > 100 | > 100 | > 100 | > 100 | > 100 | > 100 | > 100 | > 100 | > 100 | > 100 | 95.6 | > 100 | –
24 | COc1ccc(/C=C2\OC(=O)C(Cl)=C2c2ccc(OC)cc2)cc1 | > 100 | > 100 | > 100 | – | > 100 | > 100 | > 100 | > 100 | > 100 | 70.1 | > 100 | > 100 | > 100 | > 100 | > 100 | > 100 | > 100 | > 100 | – | > 100
25 | O=c1[nH]c(=O)n(C2OC(CO)C(O)C(F)C2O)cc1F (configuration not stated) | > 100 | > 100 | > 100 | – | > 100 | > 100 | > 100 | > 100 | > 100 | > 100 | > 100 | > 100 | > 100 | > 100 | > 100 | > 100 | > 100 | > 100 | > 100 | > 100
